Results reported in ChEMBL document CHEMBL3044655, “QSAR studies of 7-methyljuglone derivatives as antitubercular agents” (Med Chem Res, 2012).

Tested on: Mycobacterium tuberculosis
Experiment: Antitubercular activity against Mycobacterium tuberculosis H37Rv by BACTEC method
Assay type: functional, organism-based

Structure (SMILES): CC(=O)Oc1cc(OC(C)=O)c2c(OC(C)=O)c(C)c(C)c(Cl)c2c1OC(C)=O
- IC50 (read-out: IC50): 7.7 nM
- IC50 (read-out: pIC50 (converted)): 7.7 nM

Structure (SMILES): COc1c(OC)c(OC(C)=O)c2c(OC(C)=O)cc(OC(C)=O)c(OC(C)=O)c2c1F
- IC50 (read-out: IC50): 3.9 nM
- IC50 (read-out: pIC50 (converted)): 3.86 nM

Structure (SMILES): CC(=O)Oc1cc(OC(C)=O)c2c(OC(C)=O)ccc(F)c2c1OC(C)=O
- IC50 (read-out: IC50): 7.9 nM
- IC50 (read-out: pIC50 (converted)): 7.97 nM

Structure (SMILES): CC(=O)Oc1cc(OC(C)=O)c2c(OC(C)=O)ccc(Cl)c2c1OC(C)=O
- IC50 (read-out: IC50): 12.4 nM
- IC50 (read-out: pIC50 (converted)): 12.2 nM

Structure (SMILES): CC(=O)Oc1cc(OC(C)=O)c2c(OC(C)=O)c(C)c(C)c(F)c2c1OC(C)=O
- IC50 (read-out: IC50): 3.3 nM
- IC50 (read-out: pIC50 (converted)): 3.34 nM

Structure (SMILES): Cc1ccc2c(c1O)C(=O)C=CC2=O
- IC50 (read-out: IC50): 3.1 nM
- IC50 (read-out: pIC50 (converted)): 3.1 nM

Structure (SMILES): CC(=O)Oc1cc(C)cc2c1C(=O)C=CC2=O
- IC50 (read-out: IC50): 6 nM
- IC50 (read-out: pIC50 (converted)): 6 nM

Structure (SMILES): CC(=O)Oc1cc(C)c(Cl)c2c1C(=O)C=CC2=O
- IC50 (read-out: IC50): 6.3 nM
- IC50 (read-out: pIC50 (converted)): 6.3 nM

Structure (SMILES): COc1cc(C)cc2c1C(=O)C=CC2=O
- IC50 (read-out: IC50): 5.8 nM
- IC50 (read-out: pIC50 (converted)): 5.8 nM

Structure (SMILES): CC(=O)Oc1cc(OC(C)=O)c2c(OC(C)=O)c(C)cc(Cl)c2c1OC(C)=O
- IC50 (read-out: IC50): 149 nM
- IC50 (read-out: pIC50 (converted)): 149 nM

Structure (SMILES): COc1cc(C)c(Cl)c2c1C(=O)C=CC2=O
- IC50 (read-out: IC50): 7.7 nM
- IC50 (read-out: pIC50 (converted)): 7.7 nM

Structure (SMILES): CCOc1c(C)cc(Cl)c2c1C(=O)C=CC2=O
- IC50 (read-out: IC50): 12.5 nM
- IC50 (read-out: pIC50 (converted)): 12.5 nM

Structure (SMILES): CCOc1cc(C)cc2c1C(=O)C=CC2=O
- IC50 (read-out: IC50): 6.3 nM
- IC50 (read-out: pIC50 (converted)): 6.3 nM

Structure (SMILES): CCOc1cc(C)c(Cl)c2c1C(=O)C=CC2=O
- IC50 (read-out: IC50): 36.1 nM
- IC50 (read-out: pIC50 (converted)): 36.1 nM

Structure (SMILES): CC(=O)Oc1cc(OC(C)=O)c2c(OC(C)=O)cc(C)cc2c1OC(C)=O
- IC50 (read-out: IC50): 17.2 nM
- IC50 (read-out: pIC50 (converted)): 17.2 nM

Structure (SMILES): COc1c(C)cc(Cl)c2c1C(=O)C=CC2=O
- IC50 (read-out: IC50): 8 nM
- IC50 (read-out: pIC50 (converted)): 8 nM

Structure (SMILES): CC(=O)Oc1cc(OC(C)=O)c2c(OC(C)=O)cc(C)c(Cl)c2c1OC(C)=O
- IC50 (read-out: IC50): 27.8 nM
- IC50 (read-out: pIC50 (converted)): 27.8 nM

Structure (SMILES): CC(=O)Oc1c(C)cc(Cl)c2c1C(=O)C=CC2=O
- IC50 (read-out: IC50): 21.1 nM
- IC50 (read-out: pIC50 (converted)): 21.1 nM

Structure (SMILES): Cc1cc(O)c2c(c1)C(=O)C(O)=CC2=O
- IC50 (read-out: IC50): 3.1 nM
- IC50 (read-out: pIC50 (converted)): 3.1 nM

Structure (SMILES): Cc1cc(O)c2c(c1Br)C(=O)C=CC2=O [5-BROMO-8-HYDROXY-6-METHYLNAPHTHALENE-1,4-DIONE]
- IC50 (read-out: IC50): 3.6 nM
- IC50 (read-out: pIC50 (converted)): 3.6 nM

Structure (SMILES): Cc1cc(O)c2c(c1Cl)C(=O)C=CC2=O [5-CHLORO-8-HYDROXY-6-METHYLNAPHTHALENE-1,4-DIONE]
- IC50 (read-out: IC50): 2.5 nM
- IC50 (read-out: pIC50 (converted)): 2.5 nM

Structure (SMILES): Cc1cc(O)c2c(c1F)C(=O)C=CC2=O [5-FLUORO-8-HYDROXY-6-METHYLNAPHTHALENE-1,4-DIONE]
- IC50 (read-out: IC50): 7.6 nM
- IC50 (read-out: pIC50 (converted)): 7.6 nM

Structure (SMILES): Cc1cc(Cl)c2c(c1O)C(=O)C=CC2=O [8-CHLORO-5-HYDROXY-6-METHYLNAPHTHALENE-1,4-DIONE]
- IC50 (read-out: IC50): 4.6 nM
- IC50 (read-out: pIC50 (converted)): 4.6 nM

Structure (SMILES): O=C1C=CC(=O)c2c(O)cccc21 [JUGLONE]
- IC50 (read-out: IC50): 1.2 nM
- IC50 (read-out: pIC50 (converted)): 1.2 nM

Structure (SMILES): Cc1cc(O)c2c(c1)C(=O)C=CC2=O [RAMENTACEONE]
- IC50 (read-out: IC50): 15.1 nM
- IC50 (read-out: pIC50 (converted)): 15.1 nM
